{"source": "patent US6620834B1", "about": "“Medicinal compositions for treating colorectal cancer” (Hisamitsu Pharmaceutical Co., Inc., priority 1999, dated 2003)", "tested_on": "Yoshida's sarcoma", "assay": "liver metastasis inhibitory effect in Yoshida's sarcoma rat model bearing a colorectal cancer", "type": "in vivo", "details": "Donryu rats, Yoshida's sarcoma injected to sigmoid subserous; intra-colon administration for 5 days, autopsy day 6; versus control group", "description": "The solution was prepared in which pravastatin and aspirin were mixed in the mixing ratio below, and the pharmacological evaluation was carried out in the liver metastasis model of rat colorectal cancer.\nThe liver metastasis inhibitory effect was evaluated in the following procedure by use of the mix solution prepared in the example 1.\nDonryu strain rats (8 weeks old) were used. Under a sodium pentobarbital anesthesia a catheter was inserted from the ileocecum into the colon, and the plug was put out from the back part and fixed. At the same time Yoshida's sarcoma (1.5×10^6cells/30 μl/rat) was injected to the sigmoid subserous.\nThe mix solution prepared in the example 1 was administered intra-colon or orally for 5 days from the next day after the surgery, and at day 6 a pathologic autopsy was made.\nWhen the test on day 6 was finished, rats were killed by bleeding for a pathologic autopsy. The liver was isolated from each individual, fixed by a neutral buffered formalin solution, and a tissue section was then prepared to obtain histopathological findings. The metastasis inhibitory ratio was calculated comparing with the engraftment ratio of the cancer cells in the control group.", "data": [{"smiles": "CC(=O)Oc1ccccc1C(=O)O", "note": "[aspirin, Aspirin]", "values": [{"measurement": "liver metastasis inhibitory effect", "result": "hardly observed"}]}]}
